# Experimental data published in ChEMBL document CHEMBL1150095, “Antitumor activity and stereochemistry of acetylenic alcohols from the sponge Cribrochalina vasculum” (1995).
# The source made the active and inactive calls. The rule behind the calls is not given here.
# How the values were obtained:
# IGROV-1 = assay: Antitumor activity against human IGROV1 cells; format: functional
# NCI-H522 = assay: Antitumor activity against human NCI-H522 cells; format: functional
Structure (SMILES),Activity (IGROV-1),Activity (NCI-H522)
C#C[C@@H](O)/C=C/CCCCCCCCC(C)CCCCCCCC (stereo partly drawn),Active,Active
C#C[C@@H](O)/C=C/CCCCCCCCCCC(C)CCCC (stereo partly drawn),Active,Active
C#C[C@@H](O)/C=C/CCCCCCCCCCCCCCCC,Active,Active
C#C[C@@H](O)/C=C/CCCCCCCCCCCCCC(C)C,Active,Active
